From the supplement of paper PMC10307832

Tests used:
Experiment in all cases: relative viability (nuclei count vs DMSO), 5 days (fraction); higher = more cells survive
[1] = compound: CCN(CCO)CCCC(C)Nc1ccnc2cc(Cl)ccc12 [Hydroxychloroquine] + C[C@]1(O)C[C@@H](c2nc(-c3ccc4ccc(-c5ccccc5)nc4c3)c3c(N)nccn32)C1 [Linsitinib] (partner 1 µM)
In short: (§1)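 Lung cancer cell lines, seeded in 1536-well plates, were treated the following day by pin tool with a single drug or with five library-drug doses (not always all listed) in √10 steps on top of a fixed anchor-drug dose. Cells were fixed and nuclei stained in one step after 5 days, and nuclei were counted. Relative viability is the nuclei count for treated wells divided by that for vehicle wells, reported as medians of duplicate plates.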

[2] = compound: CCN(CCO)CCCC(C)Nc1ccnc2cc(Cl)ccc12 [Hydroxychloroquine] + CC1(C)CCC(c2ccc(Cl)cc2)=C(CN2CCN(c3ccc(C(=O)NS(=O)(=O)c4ccc(N[C@H](CCN5CCOCC5)CSc5ccccc5)c(S(=O)(=O)C(F)(F)F)c4)cc3)CC2)C1 [Navitoclax] (partner 0.5 µM)
In short: as §1

[3] = compound: CCN(CCO)CCCC(C)Nc1ccnc2cc(Cl)ccc12 [Hydroxychloroquine] + O=C(CCCCCCC(=O)Nc1ccccc1)NO [Vorinostat] (partner 1 µM)
In short: as §1

[4] = compound: CCN(CCO)CCCC(C)Nc1ccnc2cc(Cl)ccc12 [Hydroxychloroquine] + Nc1nc2[nH]cc(CCc3ccc(C(=O)N[C@@H](CCC(=O)O)C(=O)O)cc3)c2c(=O)[nH]1 [Pemetrexed] (partner 0.2 µM)
In short: as §1

Cell Line	relative viability ([1]; first compound 0.5 µM)	relative viability ([1]; first compound 1.581 µM)	relative viability ([1]; first compound 5 µM)	relative viability ([1]; first compound 15.81 µM)	relative viability ([1]; first compound 50 µM)	relative viability ([2]; first compound 0.5 µM)	relative viability ([2]; first compound 1.581 µM)	relative viability ([2]; first compound 5 µM)	relative viability ([2]; first compound 15.81 µM)	relative viability ([2]; first compound 50 µM)	relative viability ([3]; first compound 0.5 µM)	relative viability ([3]; first compound 1.581 µM)	relative viability ([3]; first compound 5 µM)	relative viability ([3]; first compound 15.81 µM)	relative viability ([3]; first compound 50 µM)	relative viability ([4]; first compound 0.5 µM)	relative viability ([4]; first compound 1.581 µM)	relative viability ([4]; first compound 5 µM)	relative viability ([4]; first compound 15.81 µM)	relative viability ([4]; first compound 50 µM)
LU99A	0.525	0.478	0.437	0.527	0.503	0.858	0.707	0.93	0.679	0.749	0.559	0.474	0.465	0.435	0.507	0.179	0.194	0.157	0.198	0.206
LXF-289	0.986	0.985	0.992	0.995	1	0.956	0.986	0.983	0.948	0.999	0.767	0.795	0.723	0.757	0.709	0.886	0.908	0.92	0.929	0.927
NCI-H23	0.499	0.693	0.56	0.553	0.546	0.841	0.822	0.842	0.732	0.953	0.674	0.566	0.56	0.626	0.67	1.21	0.663	0.609	0.56	0.74
NCI-H322M	0.891	1.06	0.961	0.945	0.972	1	1.15	1.12	1.15	1.43	0.849	0.877	0.83	0.839	0.991	0.639	0.609	0.601	0.608	0.592
NCI-H441	0.561	0.497	0.627	0.664	0.699		0.767	0.52	0.707	0.671	0.734	0.677	0.781	1.07	0.693	0.234	0.258	0.284	0.227	0.278
NCI-H460	0.849	0.862	0.633	0.939	0.848	1.24	1.35	1.19	1.36	1.41	0.733	0.865	0.812	0.815	0.83	0.0632	0.055	0.0674	0.0549	0.0607
NCI-H520	1.25	0.908	0.908	1.16	0.923	1.12	1.16	1.13	1.03	1.2	0.915	0.642	0.743	0.77	0.715	0.76	0.729	0.596	0.657	0.798
NCI-H596	0.947	1.11	1.13	1.04	0.982	0.857	0.853	0.933	0.979	0.998	0.612	0.765	0.523	0.398	0.587	0.547	0.481	0.45	0.479	0.489
NCI-H647	1.27	1.01	1.29	1.25	1.22	1.23	0.938	1.29	1.19	1.31	0.662	0.704	0.603	0.616	0.612	0.186	0.176	0.202	0.196	0.182
NCI-H838	0.929	0.91	1.01	0.93	1.04	1.16	1.11	1.13	1.14	1.24	0.721	0.667	0.803	0.716	0.721	0.238	0.248	0.264	0.243	0.253
NCI-H1355	0.872	0.879	0.896	0.809	0.892	0.891	0.879	0.876	0.991	1.01	0.657	0.582	0.631	0.63	0.657	1.11	0.997	0.906	1.05	1.14
NCI-H1395	0.964	0.979	1.13	1.13	1.18	1.21	1.05	1.17	1.18	1.01	0.756	0.716	0.606	0.743	0.674	0.83	0.936	0.717	0.793	0.779
NCI-H1437	0.904	1.07	1.18	1.16	1.05	1.08	1.1	1.11	1.14	1.11	0.853	0.862	0.85	0.844	0.891	0.326	0.314	0.324	0.33	0.321
NCI-H1651	0.909	1.1	0.975	1.14	0.963	0.927	1.05	1.12	1.07	1.01	0.582	0.589	0.583	0.579	0.493	0.628	0.626	0.602	0.597	0.449
NCI-H1666	0.764	0.773	0.771	0.813	0.724	0.921	0.951	0.986	0.827	0.918	0.991	0.943	1.01	0.92	0.936	0.878	0.765	0.846	0.755	0.844
NCI-H1734	0.817	0.748	0.914	0.894	0.903	0.913	0.812	0.86	0.988	0.948	0.856	0.697	0.787	0.866	0.826	0.46	0.398	0.408	0.427	0.427

Cell Line	relative viability ([1]; first compound 0.5 µM)	relative viability ([1]; first compound 1.581 µM)	relative viability ([1]; first compound 5 µM)	relative viability ([1]; first compound 15.81 µM)	relative viability ([1]; first compound 50 µM)	relative viability ([2]; first compound 0.5 µM)	relative viability ([2]; first compound 1.581 µM)	relative viability ([2]; first compound 5 µM)	relative viability ([2]; first compound 15.81 µM)	relative viability ([2]; first compound 50 µM)	relative viability ([3]; first compound 0.5 µM)	relative viability ([3]; first compound 1.581 µM)	relative viability ([3]; first compound 5 µM)	relative viability ([3]; first compound 15.81 µM)	relative viability ([3]; first compound 50 µM)	relative viability ([4]; first compound 0.5 µM)	relative viability ([4]; first compound 1.581 µM)	relative viability ([4]; first compound 5 µM)	relative viability ([4]; first compound 15.81 µM)	relative viability ([4]; first compound 50 µM)
NCI-H1755	1.02	0.838	0.933	0.972	0.878	1.03	0.905	0.933	0.972	0.926	0.79	0.656	0.778	0.734	0.737	0.573	0.426	0.42	0.386	0.438
NCI-H1793	0.774	0.758	1.06	0.941	0.964	0.331	0.32	0.404	0.389	0.547	0.791	0.606	0.548	0.638	0.804	0.982	0.913	0.753	0.628	0.632
NCI-H1915	1.11	1.13	1.11	1.09	1.11	0.783	0.773	0.84	0.831	0.76	0.521	0.456	0.48	0.549	0.5	0.531	0.514	0.505	0.524	0.521
NCI-H1944	1.12	1.09	1.16	1.11	1.19	0.958	0.955	1.06	0.951	1.01	0.553	0.487	0.46	0.478	0.56	0.691	0.586	0.531	0.586	0.648
NCI-H1975	0.938	0.949	0.92	1.04	1.06	1.08	1.05	1.15	1.03	1.22	0.682	0.704	0.8	0.742	0.717	0.281	0.325	0.309	0.297	0.301
NCI-H1993	0.707	0.719	0.683	0.718	0.735	0.931	0.779	0.879	1.03	0.893	0.828	0.837	0.599	0.656	0.727	0.577	0.507	0.623	0.601	0.597
NCI-H2009	1.2	1.2	1.28	1.23	1.14	1.16	1.22	1.21	1.13	1.25	0.764	0.718	0.75	0.747	0.729	1.07	0.991	1.02	1.07	1.01
NCI-H2023	0.618	0.65	0.697	0.643	0.728	1.09	0.985	1.03	0.974	1.03	0.788	0.574	0.687	0.706	0.85	0.267	0.22	0.246	0.238	0.295
NCI-H2085	0.891	0.788	0.938	0.941	0.883	1.03	1.04	1.25	1.03	1.2	0.853	0.63	0.822	0.847	0.873	0.885	0.773	0.838	0.809	0.9
NCI-H2087	1.01	0.887	0.893	0.951	0.965	0.972	0.938	1.04	1.16	1.04	0.719	0.74	0.778	0.798	0.609	0.634	0.669	0.7	0.709	0.771
NCI-H2126	0.694	0.634	0.681	0.649	0.747	0.859	0.804	0.848	0.884	0.833	0.834	0.728	0.749	0.733	0.897	0.709	0.636	0.666	0.653	0.716
NCI-H2228	0.958	0.647	0.706	0.632	0.703	0.671	0.717	1.04	0.78	1.16	0.5	0.594	0.457	0.515	0.839	0.329	0.352	0.348	0.311	0.331
NCI-H2347	1.05	0.84	0.932	0.994	0.895	0.784	0.81	0.689	0.851	0.702	0.663	0.456	0.604	0.639	0.58	0.481	0.401	0.444	0.413	0.452
NCI-H2405	0.923	0.806	0.92	0.98	0.968	1.03	0.753	0.857	0.914	0.8	1.05	0.963	0.937	1.03	0.999	1.07	1.05	0.984	0.515	1.03
NCI-H3122	1.05	1	0.953	1.05	1.07	1.03	0.994	1.01	1.04	1.03	1.04	1.13	1.03	1.06	1.19	0.189	0.205	0.359	0.188	0.199
PC-3 [JPC-3]	0.983	0.948	0.923	1.01	0.979	0.851	0.776	0.83	0.67	0.85	0.918	0.847	0.652	0.737	0.782	1.09	1.2	1.01	0.323	0.842
